“Also recorded” adds a separate entry of the source. Like-named read-outs stand apart in the source and are kept apart here.
Key:
[1] = test system: Z. tritici culture; test: Z. tritici culture viability after 4 h treatment (microscope); assay type: cell-based, Zymoseptoria tritici; conditions: for culture phenotype under microscope: 4 h; for effect on cell viability: 4 h treatment, logarithmic growth phase
[2] = target: T1, ZtNMTΔ99 (Zymoseptoria tritici, UniProt F9XBB7); test: ZtNMT IC50 assay (CPM, enzymatic); assay type: biochemical
T1 sequence (F9XBB7 entry or part of it, stated change not applied): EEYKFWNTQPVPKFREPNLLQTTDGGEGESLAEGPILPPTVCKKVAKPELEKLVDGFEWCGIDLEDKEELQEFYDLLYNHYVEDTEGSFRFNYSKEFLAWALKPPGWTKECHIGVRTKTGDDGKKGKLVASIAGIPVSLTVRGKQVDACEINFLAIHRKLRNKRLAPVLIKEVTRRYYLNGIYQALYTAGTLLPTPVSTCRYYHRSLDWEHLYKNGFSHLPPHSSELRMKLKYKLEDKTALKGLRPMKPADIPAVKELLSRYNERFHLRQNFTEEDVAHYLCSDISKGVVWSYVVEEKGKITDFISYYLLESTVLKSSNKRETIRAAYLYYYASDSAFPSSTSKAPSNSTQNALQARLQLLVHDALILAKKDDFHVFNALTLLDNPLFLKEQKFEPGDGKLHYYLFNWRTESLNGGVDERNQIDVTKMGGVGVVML
Description: As the peptide substrate we used an octapeptide derived from the N-terminus of F9X1I2 (Z. tritici predicted homolog of ADP-ribosylation factor 1, ARF1), which we hypothesized would be natively myristoylated in vivo.
Fig. 1 ZtNMT enzymatic activity and structure. […] The CPM reagent enables fluorogenic readout of the reaction rate based on the generation of coenzyme A thiol. […] (D) ZtNMT homology model generated using Swiss Model[26] based on a reported A. fumigatus NMT X-Ray structure 4UWI[27] was aligned to HsNMT1 (PDB: 5MU6, in transparent grey). […] (E) A map of ligand interactions between docked IMP-1088 and its induced fit generated ZtNMT receptor protein residues.
The assay was adapted from a previous publication.[25] […] Accumulation of fluorescence signal at 470 nm was measured at one-minute intervals during the first 20 minutes of the reaction. Rates of the enzymatic reaction were calculated from the linear range of the resulting fluorescence over time curve using GraphPad Prizm 5. Then, sigmoidal dose–response (variable curve) fitting was applied to the data to obtain IC50 values. The assay was performed with at least 2 replicates, mean and confidence intervals are reported.

[3] = test system: Z. tritici; test: Anti-proliferative EC50 assay (MTS viability); assay type: cell-based, Zymoseptoria tritici
[4] = target: HsNMT1; conditions: cited from earlier work; for Ki: Table S1, cells marked (Ki), ref SI refs 3, 5, 6 as given with each inhibitor name, read-out: HsNMT1 IC50 (µM), value marked (Ki); for IC50: Table S1, ref SI refs 1-7 as given with each inhibitor name
[5] = test system: Z. tritici whole proteome; test: TMT-based proteomics of the whole lysate after NMT inhibition; assay type: cell-based, Zymoseptoria tritici; conditions: 8-64 μM, 4 h
Procedure: These changes reflect the acute response mounted by the fungus in response to compound and are relatively substantial considering that they occur following only 4 hours of inhibitor treatment. Limited annotation of Z. tritici genes[43] prompted us to undertake an in-depth analysis using NCBI BLAST+[39] to find closest homologs in S. cerevisiae, one of the most well-annotated yeast genomes available. We performed the search filtering out poor alignment matches (e-value > 0.01) and selected a single best match in the S. cerevisiae proteome for each Z. tritici protein.
Fig. 3 Response of Z. tritici to treatment with NMT inhibitors. […] Data is normalized by subtraction of the row mean values. (B) GO biological process and KEGG term enrichments using Fisher's exact test applied to proteins in Cluster W. (C) GO biological process term enrichments from Fisher's exact test applied to proteins in Cluster Z. GO annotation were assigned to Z. tritici proteins based on S. cerevisiae homolog (BLAST analysis) terms.
0.8 mg of each of the TMTsixplex™ Isobaric labels was dissolved in 41 μl anhydrous acetonitrile and then 8 μl of the solution of a reagent was added to 30 μl of corresponding peptide solution to start the labelling reaction. The solution was stirred at room temperature for 1.5 h. […]

[6] = test system: NMT activity in live Z. tritici; test: YnMyr tagging in live Z. tritici, in-gel fluorescence
Procedure: Fig. 2 Inhibition and assessment of myristoylation in vivo. (A) Generalized workflow for identification and quantification of myristoylated proteins. Cells were treated with YnMyr in culture, and cell lysates ligated to multifunctional reagents bearing a TAMRA dye for fluorescent in-gel imaging and/or biotin for affinity enrichment and analysis by proteomics.
YnMyr was used to measure the effect of inhibitor on NMT activity in live Z. tritici.

[7] = test system: Z. tritici myristoylated proteome; test: TMT-based proteomics of myristate enriched proteins after NMT inhibition; assay type: cell-based, Zymoseptoria tritici
[8] = target: HsNMT1; set-up: method as in PMID 29760414; conditions: estimated; cited from earlier work
[9] = target: T1, ZtNMTΔ99; assay type: biochemical; conditions: in the presence of 32 μM myristoyl-CoA; read-out: KM(peptide)
Procedure: ZtNMT characterization. KM and Vmax constants measurements were performed at two
ZtNMT concentrations: 100 ng/ml and 200 ng/ml.
B) ZtARF1 Km and Vmax measured
The kinetic constants for both NMT substrates in

[10] = Table S1, enzymatic CPM assay, read-out: IC50
[11] = Table S1, viability MTS assay, read-out: EC50

Compound | IC50 [2, 10] [nM] | IC50 [4] [nM] | other results
N[C@H](CC(=O)N1C[C@H](CO)[C@@H](c2ccc(Cl)c(NC(=O)Cc3ccc(F)cc3)c2)C1)Cc1ccc(Cl)cc1 [IMP-162] | – | – | culture phenotype under microscope ([1]; 24 μM and 48 μM): phenotype consistent with cell death; culture phenotype under microscope ([1]; 96 μM): most cells appear dead; effect on cell viability [1]: kill Z. tritici culture; IC50 [2]: 1900 nM; EC50 ([3]; Zymoseptoria tritici, Fig. 1B, Z. tritici cell viability, MTS, 40 h, read-out: EC50): ~20000 nM; EC50 ([3]; Zymoseptoria tritici, Table S1, viability MTS assay, read-out: EC50): 18000 nM
COc1cc(CCOC(=O)c2sc3ccccc3c2OC2CCNCC2)cc(OC)c1 [IMP-277] | > 300000 | – | Ki [4]: 0.031 µM
Cc1nn(C)c(C)c1Cc1nnc(-c2cc(Cl)ccc2OC2CCNCC2)o1 [IMP-329] | 870 | – | Ki [4]: 0.02 µM; EC50 [3, 11]: 280000 nM
Cc1nn(C)c(C)c1NS(=O)(=O)c1c(Cl)cc(-c2ccnc(N3CCNCC3)c2)cc1Cl [IMP-366, reference compound] | – | – | IC50 [2]: 50 nM; EC50 ([3]; Zymoseptoria tritici, Table S1, viability MTS assay): 110000 nM
Cc1nn(C)c(C)c1CCOc1cc(F)ccc1-c1ccc2[nH]nc(CN(C)C)c2c1 [IMP-917] | 160 | 13 | –
Cc1nn(C)c(C)c1CCOc1c(F)cccc1-c1ccc2c(c1)c(CN(C)C)nn2C [IMP-1031] | 16 | 4.6 | EC50 [3, 11]: 51000 nM
Cc1nn(C)c(C)c1CCOc1c(F)cccc1-c1ccc2c(c1)c(CN)nn2C [IMP-1034] | 32 | 5 | –
CNCc1nn(C)c2ccc(-c3cccc(F)c3OCCc3c(C)nn(C)c3C)cc12 [IMP-1036] | 30 | 16 | –
Cc1nn(C)c(C)c1CCOc1c(-c2ccc3c(c2)c(CN(C)C)nn3C)ccc(F)c1F [IMP-1088] | – | < 1 | effect on cell viability [1]: no detectable effect on cell viability; whole proteome response [5]: significant dose-dependent changes in the expression of multiple proteins; IC50 [2]: 12 nM; TC50 (half maximal concentration of YnMyr tagging) ([6]; 4 h, intensity of most prominent band (ca. 20 kDa), in-gel fluorescence): 14000 ± 1000 nM; effect on YnMyr labeling (in-gel band intensities) ([6]; 4 h with compound and YnMyr, TAMRA fluorescence): dose-dependently reduces labeling; also recorded: reduced YnMyr tagging; YnMyr tagging of myristoylated proteins ([7]; 64 μM versus DMSO, 4 h): reduced tagging; TC50 (concentration of half-tagging with YnMyr) ([7]; first subset of myristoylated proteins in Cluster 1): 8000 to 16000 nM; TC50 (concentration of half-tagging with YnMyr) ([7]; second subset of myristoylated proteins in Cluster 1): 16000 to 32000 nM; TC50 (concentration of half-tagging with YnMyr) ([7]; third subset of myristoylated proteins in Cluster 1): 32000 to 64000 nM; Kd [8]: < 0.2 nM; EC50 ([3]; Fig. 1B, Z. tritici cell viability, MTS, 40 h): 23000 nM; EC50 ([3]; Zymoseptoria tritici, 40 h, Fig. 1B, Z. tritici cell viability, MTS): ~20000 nM
CNCc1nn(C)c2ccc(-c3ccc(F)c(F)c3OCCc3c(C)nn(C)c3C)cc12 [IMP-1089] | 6.7 | < 1 | EC50 [3, 11]: 46000 nM
Cc1nn(C)c(C)c1CCOc1cc(F)ccc1-c1ccc2nnc(C3CCCN3)n2c1 (stereo not drawn) [IMP-1090] | 22000 | 2590 | –
Cc1nn(C)c(C)c1CCOc1cc(F)ccc1-c1ccc2nnc(C3CNC3)n2c1 [IMP-1091] | 2100 | 56 | –
CNCc1nnc2ccc(-c3ncccc3OCCc3c(C)nn(C)c3C)cn12 [IMP-1093] | > 300000 | 7390 | –
CNCc1nnc2ccc(-c3ccc(F)cc3OCCc3c(C(=O)N(C)C)nn(C)c3C)cn12 [IMP-1094] | 86 | 7 | –
CNCc1cnc2ccc(-c3ccc(F)cc3OCCc3c(C)nn(C)c3C)cn12 [IMP-1097] | 200 | 1.9 | –
Cc1c(CCOc2cc(F)ccc2-c2ccc3nnc(C4CNC4)n3c2)c(C(=O)N(C)C)nn1C [IMP-1100] | 16 | 1 | EC50 [3, 11]: > 500000 nM
CNCc1nnc2ccc(-c3ccc(F)cc3OCCc3c(C(F)(F)F)nn(C)c3C)cn12 [IMP-1111] | 700 | 6.5 | –
CNCc1nnc2ccc(-c3ccc(F)cc3OCCc3c(C(=O)N4CCCC4)nn(C)c3C)cn12 [IMP-1112] | 420 | 19.8 | –
CNCCc1cnc2ccc(-c3ccc(F)cc3OCCc3c(C(=O)N(C)C)nn(C)c3C)cn12 [IMP-1124] | 13 | 0.7 | –
Cc1nn(C)c(C)c1CCOc1c(F)cccc1-c1ccc2ncc(CN(C)C)n2c1 [IMP-1131] | 2400 | 2.4 | –
Cc1c(CCOc2cc(F)ccc2-c2ccc3ncc(CN(C)C)n3c2)c(C(=O)N(C)C)nn1C [IMP-1134] | < 1 | < 1 | EC50 [3, 11]: 27000 nM
CNCc1cnc2ccc(-c3ccc(F)cc3OCCc3c(C(N)=O)nn(C)c3C)cn12 [IMP-1179] | 280 | 5.6 | –
CNCCc1cnc2ccc(-c3ccc(F)cc3OCCc3c(CO)nn(C)c3C)cn12 [IMP-1185] | 4000 | 25.8 | –
CNCc1cnc2ccc(-c3ccc(F)cc3OCCc3c(C#N)nn(C)c3C)cn12 [IMP-1195] | < 1 | < 1 | –
NH2-GLTFSKLF-OH (H-GLTFSKLF-OH) [ZtARF1 peptide, octapeptide substrate derived from the N-terminus of F9X1I2 (Z. tritici ARF1 homolog)] | – | – | Km [9]: 2.73 µM
